Measurements as given in patent publication US7132542B2, “Compounds for the treatment of male erectile dysfunction” (Bristol-Myers Squibb Company, priority 2003, dated 2006).

What was measured:
[1] = test system: rat small intestine tissue; assay: Relaxation of rat small intestine (ileum) segments; parameters: concentration or dose not given beside the values; conditions: integral of nifedipine-sensitive force, 30 min post-compound addition
Excerpt: The ability of the compounds of the invention to relax rat small intestine tissue as a model for the treatment of irritable bowel syndrome is described as follows. Male rats (Harlan, Sprague Dawley, 250–350 g) were sacrificed by decapitation. A portion of small intestine (ileum) was removed and the attached connective tissues and intestinal contents removed. The ileum was cut into segments of ≦1 cm in length. The segments were mounted longitudinally between fixed hooks in organ baths containing warm (37° C.) physiological salt solution (composition in mM: NaCl 118.4, KCl 4.7, KH2PO4 1.2, MgSO4 1.2, CaCl2 1.8, Glucose 10.1, NaHCO3 25; gassed with 95% O2/5% CO2, pH 7.4). A stable tension of ˜1.5 g was maintained in the tissue segments during the equilibration period of 45 minutes. Changes in muscle tension were measured with isometric force transducers (Grass, FT-03C) and recorded using AcqKnowledge data acquisition system (AcqKnowledge for MP100WS, Biopac Systems Inc., Goleta, Calif.). Compound or vehicle was added in the baths for 30 minutes. “Zero” active force was established at the end of the experiment using nifedipine (20 μM). The effects of compounds or vehicle on force was determined by measuring the integral of nifedipine-sensitive force (including resting tone and spontaneous contractions) pre- and 30 min post-compound (or vehicle) addition. Results are expressed as the percentage inhibition of force. DMSO vehicle inhibited force (integral) by −0.6±3.0% (n=25).

[2] = test system: rabbit corpus cavernosum tissue; assay: Relaxation of rabbit corpus cavernosum strips precontracted with phenylephrine; conditions: Oryctolagus cuniculus; inhibition of phenylephrine (3 μM)-induced force as compared to vehicle control; read-out: % Inhibition of force (RCC strips)
Experimental: The ability of the compounds of the invention to relax rabbit corpus cavernosum tissue as a model for the treatment of erectile dysfunction is described as follows. New Zealand white rabbits (3.4–3.7 kg) were euthanized by sodium pentobarbital (100 mg/kg) overdose. The penis from each animal was rapidly removed and immersed in a cold oxygenated modified Krebs Henseleit bicarbonate buffer. The penis' outer tunica was removed and the corpus cavernosum smooth muscle obtained and cut into strips approximately 3–5 mm long. The strips were suspended in tissue baths containing physiological salt solution (see above), and allowed to equilibrate for at least one hour under resting tension of 1.0 gram. Isometric force was measured as described above. Tissue strips were stimulated with the α-agonist phenylephrine (3 μM) and allowed to reach a steady level of force prior to the addition of test compounds. The results are expressed as the percentage inhibition of phenylephrine-induced force as compared to vehicle control.

[3] = test system: cloned mammalian (mSlo or hSlo) BK channel; assay: Assay for BK channel openers: two-electrode voltage clamp of BK-mediated outward current in Xenopus oocytes; format: cell-based; conditions: percent increase over BK current in controls, voltage step to +140 mV, IBTX-sensitive current
Experimental: The ability of the compounds of the invention to open BK channels and increase whole-cell outward (K^+) BK-mediated currents was assessed under voltage-clamp conditions by determining their ability to increase cloned mammalian (mSlo or hSlo) BK-mediated outward current heterologously expressed in Xenopus oocytes [Butler, A., et al., Science 1993, 261, 221–224; Dworetzky, S. I., et al., Mol. Brain Res. 1994, 27, 189–193; Gribkoff, V. K., et al., Mol. Pharmacol. 1996, 50, 206–217]. The two BK constructs employed represent nearly structurally identical homologous proteins, and have proven to be pharmacologically indistinguishable in our tests. To isolate BK current from native (background, non-BK) current, the specific and potent BK channel-blocking toxin iberiotoxin (IBTX) [Galvez, A., et al., J. Biol. Chem. 1990, 265, 11083–11090] was employed at a supramaximal concentration, e.g., 50–100 nanomolar (“nM”). The relative contribution of BK channel-mediated current to total outward current was determined by subtraction of the current remaining in the presence of IBTX (non-BK current) from the current profiles obtained in all other experimental conditions (control, drug, and wash) [Gribkoff, V. K. et al., Mol. Pharmacol. 1996, 50, 206–217]. […] All compounds were tested in 5–10 oocytes and are reported at the indicated concentration of 20 micromolar (“μM”) (or as otherwise indicated); the effect of the selected compounds of the invention on BK current was expressed as the percent of control IBTX-sensitive current at a single transmembrane voltage (+140 mV) and is listed in Table 1. Recordings were accomplished using standard two-electrode voltage clamp techniques [Stuhmer, W., et al., Methods in Enzymology, 1992, 207, 319–339]; voltage-clamp protocols consisted of 500–750 milliseconds (“ms”) duration step depolarizations, from a holding potential of −60 mV, to a final voltage up to +140 mV in 20 mV steps. The experimental media (modified Barth's solution) consisted of millimolar (“mM”): NaCl (88), NaHCO3 (2.4), KCl (1.0), HEPES (10), MgSO4 (0.82), Ca(NO3)2 (0.33), CaCl2 (0.41); pH 7.5.

Row | SMILES | % Inhibition of force (RSI strips) [1] | inhibition [2] | % MaxiK opening ([3]; at 20 μM) | % MaxiK opening ([3]; at 1 μM)
1 | O=C(CCN1CCOCC1)Nc1ccc(Sc2c(-c3cc(Cl)ccc3O)c3cc(C(F)(F)F)ccc3[nH]c2=O)cc1 [Example 3, N-{4-[4-(5-Chloro-2-hydroxy-phenyl)-2-oxo-6-trifluoromethyl-1,2-dihydro-quinolin-3-ylsulfanyl]-phenyl}-3-morpholin-4-yl-propionamide] | 50% | 22% | 453% | –
2 | O=C(CN1CCOCC1)Nc1ccc(Sc2c(-c3cc(Cl)ccc3O)c3cc(C(F)(F)F)ccc3[nH]c2=O)cc1 [Example 1, N-{4-[4-(5-Chloro-2-hydroxy-phenyl)-2-oxo-6-trifluoromethyl-1,2-dihydro-quinolin-3-ylsulfanyl]-phenyl}-2-morpholin-4-yl-acetamide] | 51% | 34% | – | 296^⋄ %
